Here are results for one compound from patent publication US20180221343A1, “PHARMACEUTICAL COMPOSITION FOR PREVENTING OR TREATING MACULAR DEGENERATION” (KOREA RESEARCH INSTITUTE OF CHEMICAL TECHNOLOGY, priority 2011, published 2018).

In series [1] the test system is corneal angiogenesis. Kind of series: Inhibitory effects against corneal angiogenesis in animal models having corneal damage (subconjunctival injection). The format is in vivo, Sprague Dawley rats. To be noted: subconjunctival injection 20 μl; KR 0.3 mg/ml, Avastin 10 mg/ml; 1 week after administration. How it is done:
The tests were performed by using Sprague Dawley rats (8 weeks old, male) as animals having corneal damage (15 rats for the experiment group; and 1 rat for normal group, respectively). The corneal damage was induced by applying a cotton swab coated with silver nitrate to the surface of the rat corneas, as as to induce a damage having a diameter of 2 mm in the central cornea. On the third day after inducing the corneal damages, we confirmed the establishment of corneal angiogenesis-inducing models and then subconjunctivally injected a solution (20 μl) prepared by dissolving the compound of Preparation Example 23, i.e., (2R,3R,4S)-6-amino-4-[N-(4-chlorophenyl)-N-(1H-imidazol-2-ylmethyl)amino]-3-hydroxy-2-methyl-2-dimethoxymethyl-3,4-dihydro-2H-1-benzopyran (KR-31831) in phosphate buffered saline (PBS) containing 10% PEG 400, in the concentration of 0.3 mg/ml. In case of the control group, the PBS (20 μl) containing 10% PEG 400 was subconjunctivally injected. As a positive control, a solution (20 μl) prepared by dissolving Avastin (used as an angiogenesis inhibitor) in PBS in the concentration of 10 mg/ml was subconjunctivally injected. The evaluations quantifying the photographs of FIG. 1 were performed by using the Image J (NIH, USA) program and the results thereof were shown in FIG. 2.

In series [2] the test system is corneal epithelial cells. In words: Effects on normal regeneration of corneal epithelial cells in animal models. The format is in vivo, rats. The following applies: eye drop 50 μl twice a day. The procedure: Animal models having damage in the corneal epithelial cells were established by anesthetizing rats (8 weeks old, 200 g to 250 g) with a mixed solution of rompun and zoletil (1 ml/kg) and then scraping the corneal epithelial cells at the center of the cornea in a circular form having 2 mm diameter with a surgical knife. The removal of corneal epithelial cells was confirmed with a 1% fluorescein solution. The eye drop formulation (50 μl) used in Example 2 was administered twice a day, i.e., every 12 hours. The evaluations quantifying the photographs of FIG. 5 were performed by using the Image J (NIH, USA) program and the results thereof were shown in FIG. 6.

The subject of series [3] is retinal angiogenesis. In words: Laser-induced retinal damage model, retinal angiogenesis by dextran-FITC fluorescence. The format is in vivo, Brown Norway rats. The following applies: 2 weeks after administration. The procedure:
The tests were performed by using Brown Norway rats (8 weeks old, male) as animals having retinal damage (15 rats for the experiment group; and 1 rat for normal group, respectively). The retinal Bruch's membrane of each Brown Norway rat was damaged using a Zeiss 532s laser at the intensity of […], 30 ms. On the third day after the laser-damaging, the drug was administered into the vitreous humor in order to observe the retinal vessels. The compound of the present invention, i.e., (2R,3R,4S)-6-amino-4-[N-(4-chlorophenyl)-N-(1H-imidazol-2-ylmethyl)amino]-3-hydroxy-2-methyl-2-dimethoxymethyl-3,4-dihydro-2H-1-benzopyran was administered with the solutions (10 μl of each solution) obtained by dissolving in PBS containing 30% PEG 400 and 10% DMSO, in the concentrations of 0.1 mg/ml and 0.3 mg/ml. Avastin was administered with the solution (10 μl) obtained by dissolving in PBS in the concentration of 2.5 mg/ml. In case of the control group, the PBS (10 μl) was administered. In addition, (2R,3R,4S)-6-amino-4-[N-(4-chlorophenyl)-N-(1H-imidazol-2-ylmethyl)amino]-3-hydroxy-2-methyl-2-dimethoxymethyl-3,4-dihydro-2H-1-benzopyran was intraperitoneally administered with the solution obtained by dissolving in PBS containing 30% PEG 400 and 10% DMSO, in the dose of 25 mg/kg. 2 weeks after the drug administrations, dextran-FITC was injected into the left ventricle in the dose of 25 mg/kg, followed by enucleating the eye after 5 minutes therefrom; and then fixing in a 10% formalin solution. The cornea and the eye lens were removed from the fixed eye, which was then observed under a fluorescence microscope. Angiogenesis was identified by the intensity and leakage of dextran-FITC in the laser-induced damage site; and the results thereof were shown in FIG. 7. The evaluations quantifying the photographs of FIG. 7 were performed by using the Image J (NIH, USA) program and the results thereof were shown in FIG. 8.

In series [4] the test system is retinal angiogenesis. Kind of series: Laser-induced retinal damage model in micro pigs, fluorescein intensity. The format is in vivo, Yutacan Micro pigs. How it is done: The tests were performed by using Yutacan Micro pigs (3 kg, male) as animal models having retinal damage (15 pigs for the experiment group). The retinal macular degeneration models were established according to the same procedures as in Brown Norway rats of Example 5. The eye drop formulation (100 μl, 0.9 mg/ml) prepared according to the same procedures as in Example 2 was administered four times per day for 2 weeks. For vitreous injection, the solution of the same compound (20 μl, 0.3 mg/ml) was injected into the vitreous humor once. 2 weeks after the administrations, 1% fluorescein was intravenously injected so as to observe the laser-induced damage site; and the effects of the compound of the present invention, i.e., (2R,3R,4S)-6-amino-4-[N-(4-chlorophenyl)-N-(1H-imidazol-2-ylmethyl)amino]-3-hydroxy-2-methyl-2-dimethoxymethyl-3,4-dihydro-2H-1-benzopyran. The evaluations quantifying the photographs of FIG. 9 were performed by using the Image J (NIH, USA) program and the results thereof were shown in FIG. 10.

With `COC(OC)[C@]1(C)Oc2ccc(N)cc2[C@H](N(Cc2ncc[nH]2)c2ccc(Cl)cc2)[C@H]1O` [KR-31831, (2R,3R,4S)-6-amino-4-[N-(4-chlorophenyl)-N-(1H-imidazol-2-ylmethyl)amino]-3-hydroxy-2-methyl-2-dimethoxymethyl-3,4-dihydro-2H-1-benzopyran], the “corneal angiogenesis in comparison with the corneal angiogenesis (100%) of the control group” value in series [1] worked out at 52.6±10%. The “healing rate of corneal epithelial damage” value in series [2] (0 hour after the administration) is 52±9%; in series [2] (18 hours after the administration) it was 55±9%; in series [2] (36 hours after the administration) it was 94±8%. The “fluorescence intensity at laser-induced damage site (surrounding vessels = 100)” value in series [3] (0.1 mg/ml, VI (10 μl into the vitreous humor)) came out at 53±2.8; in series [3] (0.3 mg/ml, VI (10 μl into the vitreous humor)), 45±3.1; in series [3] (25 mg/kg, IP (intraperitoneal)), 51±5. Moreover, the “intensity at laser-induced damage site (non-drug administered control group = 1)” value in series [4] (eye drop formulation 100 μl, 0.9 mg/ml, 4 times per day, 2 weeks) was 0.46±0.17; in series [4] (vitreous injection 20 μl, 0.3 mg/ml, once, 2 weeks after) it was 0.36±0.14.
